Results taken from patent publication US20050288307A1, “Anti-viral compounds” (priority 2002, published 2005).
Like-named read-outs stand apart in the source and are kept apart here.

Key:
[1] = molecular target: T1, CDK2/Cyclin E (Homo sapiens, UniProt P24941); experiment: CDK2/cyclin E kinase assay (GST-Rb phosphorylation); type: biochemical;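 further: enzyme source: His-tagged CDK2/cyclin E complex co-expressed recombinantly in Sf9 insect cells using baculovirus constructs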
T1 construct: His; made in house; host or cells: Sf9 insect cells (baculovirus)

[2] = molecular target: CDK4/Cyclin D1 (Homo sapiens, UniProt P11802); experiment: CDK4/cyclin D1 kinase assay (GST-Rb phosphorylation); type: biochemical
Chain of CDK4/Cyclin D1 (P11802 whole entry, species assumed): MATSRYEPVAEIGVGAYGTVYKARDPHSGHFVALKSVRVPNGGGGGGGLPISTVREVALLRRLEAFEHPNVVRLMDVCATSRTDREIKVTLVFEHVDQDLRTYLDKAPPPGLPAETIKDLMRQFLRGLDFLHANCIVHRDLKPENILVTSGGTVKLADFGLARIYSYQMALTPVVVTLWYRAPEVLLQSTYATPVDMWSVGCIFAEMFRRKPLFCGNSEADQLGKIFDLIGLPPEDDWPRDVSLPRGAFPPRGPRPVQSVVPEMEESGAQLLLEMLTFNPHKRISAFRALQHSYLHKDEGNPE
Chain of CDK4/Cyclin D1 (P24385 whole entry partner, species assumed): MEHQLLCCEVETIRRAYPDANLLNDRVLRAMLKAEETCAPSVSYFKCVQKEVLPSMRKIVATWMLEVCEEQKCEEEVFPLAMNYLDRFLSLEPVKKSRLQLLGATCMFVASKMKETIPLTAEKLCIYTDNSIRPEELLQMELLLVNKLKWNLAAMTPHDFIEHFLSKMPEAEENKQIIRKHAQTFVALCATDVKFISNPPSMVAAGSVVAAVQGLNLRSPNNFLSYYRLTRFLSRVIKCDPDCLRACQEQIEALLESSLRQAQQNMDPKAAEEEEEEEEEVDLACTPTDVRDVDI

[3] = molecular target: CDK1/Cyclin B (Homo sapiens, UniProt P06493); experiment: CDK1/cyclin B kinase assay (GST-Rb phosphorylation);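 further: Enzyme: His-tagged CDK1/Cyclin B co-expressed in baculovirus-infected Sf9 insect cells, purified via metal-chelate chromatography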
Chain of CDK1/Cyclin B (P06493 whole entry, species assumed): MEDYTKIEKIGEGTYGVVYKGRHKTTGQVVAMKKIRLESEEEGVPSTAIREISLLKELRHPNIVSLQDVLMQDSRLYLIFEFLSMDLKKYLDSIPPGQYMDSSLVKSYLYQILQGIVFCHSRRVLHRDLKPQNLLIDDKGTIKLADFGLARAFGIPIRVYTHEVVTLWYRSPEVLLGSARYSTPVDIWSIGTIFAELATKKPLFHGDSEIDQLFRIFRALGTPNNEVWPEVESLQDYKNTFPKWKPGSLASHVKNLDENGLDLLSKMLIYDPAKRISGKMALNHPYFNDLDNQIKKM
Chain of CDK1/Cyclin B (P14635 whole entry partner, species assumed): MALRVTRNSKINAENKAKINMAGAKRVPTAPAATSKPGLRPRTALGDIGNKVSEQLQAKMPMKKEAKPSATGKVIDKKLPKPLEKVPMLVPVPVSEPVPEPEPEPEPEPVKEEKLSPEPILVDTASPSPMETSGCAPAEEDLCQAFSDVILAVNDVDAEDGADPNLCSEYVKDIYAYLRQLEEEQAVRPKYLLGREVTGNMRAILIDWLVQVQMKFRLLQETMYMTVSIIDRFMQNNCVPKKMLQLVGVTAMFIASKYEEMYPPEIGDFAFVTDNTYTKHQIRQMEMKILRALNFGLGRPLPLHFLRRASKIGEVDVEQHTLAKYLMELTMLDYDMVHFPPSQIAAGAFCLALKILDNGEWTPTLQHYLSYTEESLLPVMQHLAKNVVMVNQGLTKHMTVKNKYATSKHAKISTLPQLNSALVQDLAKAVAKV
Method: His-tagged CDK2/Cyclin E and CDK1/Cyclin B may be co-expressed and PKCα singularly expressed in Sf 9 insect cells infected with the appropriate baculovirus constructs. The cells are harvested two days after infection by low speed centrifugation and the proteins purified from the insect cell pellets by Metal-chelate chromatography. Briefly, the insect cell pellet is lysed in Buffer A (10 mM Tris-HCl, pH 8.0, 150 mM NaCl, 0.02% NP40 and 5 mM β-marcaptoethanol, 1 mM NaF. 1 mM Na3VO4 and Protease Inhibitors Coctail (Sigma) containing AEBSF, pepstatin A, E 64, bestatin, leupeptin) by sonication. The soluble fraction is cleared by centrifugation and loaded onto Ni-NTA-Agarose (Quiagen). Non bound proteins were washed off with 300 mM NaCl, 5-15 mM Imidazole in Buffer A and the bound proteins eluted with 250 mM Imidazole in Buffer A. The purified proteins are extensively dialyzed against Storage buffer (20 mM HEPES pH 7.4, 50 mM NaCl, 2 mM DTT, 1 mM EDTA, 1 mM EGTA, 0.02% NP40, 10% v/v Glycerol) aliquoted and stored at −70° C.

[4] = molecular target: CDK7/cyclin H (Homo sapiens, UniProt P50613); experiment: CDK7 assay (CTD peptide substrate); type: biochemical
Chain of CDK7/cyclin H (P50613 whole entry): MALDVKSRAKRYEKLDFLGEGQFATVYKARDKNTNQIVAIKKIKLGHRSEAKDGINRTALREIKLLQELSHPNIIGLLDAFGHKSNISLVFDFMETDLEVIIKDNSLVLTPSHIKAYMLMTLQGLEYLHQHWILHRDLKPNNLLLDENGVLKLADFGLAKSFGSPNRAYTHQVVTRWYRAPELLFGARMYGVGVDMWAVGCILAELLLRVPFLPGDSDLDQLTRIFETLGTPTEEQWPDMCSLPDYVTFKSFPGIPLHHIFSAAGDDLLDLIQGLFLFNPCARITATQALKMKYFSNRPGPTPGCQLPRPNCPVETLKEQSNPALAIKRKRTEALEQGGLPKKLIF
Chain of CDK7/cyclin H (P51946 whole entry partner): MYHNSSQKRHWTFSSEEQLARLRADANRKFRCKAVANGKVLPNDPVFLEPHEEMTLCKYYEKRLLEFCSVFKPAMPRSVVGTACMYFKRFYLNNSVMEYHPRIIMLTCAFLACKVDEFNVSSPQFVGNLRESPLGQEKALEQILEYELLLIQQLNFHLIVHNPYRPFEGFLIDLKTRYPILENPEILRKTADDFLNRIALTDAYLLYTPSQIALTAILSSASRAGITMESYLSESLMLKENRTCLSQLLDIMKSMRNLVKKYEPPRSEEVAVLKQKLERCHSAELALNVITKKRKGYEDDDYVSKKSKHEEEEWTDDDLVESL
Method: (§1) CTD peptide substrate (biotinyl-Ahx-(Tyr-Ser-Pro-Thr-Ser-Pro-Ser)4-NH2; 1-2 mg/mL) and recombinant human CDK7/cyclin H, CDK9/cyclin T1, or CDK9/cyclin K (0.5-2 μg) were incubated for 45 min at 30° C. in the presence of varying amounts of test compound in 20 mM MOPS pH 7.2, 25 mM β-glycerophosphate, 5 mM EGTA, 1 mM DTT, 1 mM sodium vanadate, 15 mM MgCl2, and 100 μM ATP (containing a trace amount of ^32PγATP) in a total volume of 25 μL in a 96-well microtiter plate. The reaction was stopped by placing the plate on ice for 2 min. Avidin (50 μg) was added to each well, and the plate was incubated at room temp for 30 min. The samples were transferred to a 96-well P81 filter plate, and washed (4×200 μL per well) with 75 mM phosphoric acid. Microscint 40 scintillation liquid (50 μL) was added to each well, and the amount of ^32P incorporation for each sample was measured using a Packard Topcount microplate scintillation counter.

[5] = molecular target: CDK9/cyclin T1 (Homo sapiens, UniProt P50750); experiment: CDK9 assay (CTD peptide substrate); type: biochemical
Chain of CDK9/cyclin T1 (P50750 whole entry): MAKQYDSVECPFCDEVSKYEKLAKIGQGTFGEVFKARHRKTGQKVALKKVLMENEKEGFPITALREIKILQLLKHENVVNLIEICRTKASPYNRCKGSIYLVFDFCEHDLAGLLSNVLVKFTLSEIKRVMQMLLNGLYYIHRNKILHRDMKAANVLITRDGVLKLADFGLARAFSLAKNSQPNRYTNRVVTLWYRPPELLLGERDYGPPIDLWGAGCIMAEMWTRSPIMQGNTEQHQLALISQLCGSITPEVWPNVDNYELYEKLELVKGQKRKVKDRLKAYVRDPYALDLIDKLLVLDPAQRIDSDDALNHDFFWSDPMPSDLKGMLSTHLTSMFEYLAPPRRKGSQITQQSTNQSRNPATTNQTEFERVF
Chain of CDK9/cyclin T1 (O60563 whole entry partner): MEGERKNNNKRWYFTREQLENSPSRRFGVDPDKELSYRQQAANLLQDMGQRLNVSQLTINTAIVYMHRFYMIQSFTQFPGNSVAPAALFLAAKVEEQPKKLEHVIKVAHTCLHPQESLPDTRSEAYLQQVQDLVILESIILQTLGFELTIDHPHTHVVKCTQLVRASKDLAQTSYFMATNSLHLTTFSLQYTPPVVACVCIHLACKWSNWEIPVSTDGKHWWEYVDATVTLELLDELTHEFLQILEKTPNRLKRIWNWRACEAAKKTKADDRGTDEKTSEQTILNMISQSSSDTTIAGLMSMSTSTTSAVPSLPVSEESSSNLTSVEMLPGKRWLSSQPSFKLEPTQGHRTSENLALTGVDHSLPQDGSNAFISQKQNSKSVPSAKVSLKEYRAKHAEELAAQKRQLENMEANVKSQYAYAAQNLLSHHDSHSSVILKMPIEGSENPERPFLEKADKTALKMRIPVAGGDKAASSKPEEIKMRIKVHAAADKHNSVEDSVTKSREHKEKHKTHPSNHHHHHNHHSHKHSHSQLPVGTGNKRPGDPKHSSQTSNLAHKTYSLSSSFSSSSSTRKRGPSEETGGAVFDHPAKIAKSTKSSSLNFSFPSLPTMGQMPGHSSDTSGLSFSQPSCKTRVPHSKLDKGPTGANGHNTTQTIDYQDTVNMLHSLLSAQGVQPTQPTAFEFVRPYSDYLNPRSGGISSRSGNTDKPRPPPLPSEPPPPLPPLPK
Method: as §1

[6] = molecular target: CDK2/cyclin A (Homo sapiens, UniProt P24941); experiment: CDK2/cyclin A kinase assay; type: biochemical;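 further: Read-out is incorporated radioactivity retained on P81 filter plates and quantified by scintillation counting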
Method: Reactions were stopped on ice, followed by filtration through p81 filterplates (Whatman Polyfiltronics, Kent, UK). After washing 3 times with 75 mM orthophosphoric acid, plates were dried, scintillant added and incorporated radioactivity measured in a scintillation counter (TopCount, Packard Instruments, Pangboume, Berks, UK).

[7] = Table 3, read-out: Average IC50 CDK2 cyclin E1
[8] = Table 3, read-out: Average IC50 CDK4 cyclin D1
[9] = Table 3, read-out: Average IC50 CDK7 cyclin H
[10] = Table 3, read-out: Average IC50 CDK9 cyclin T1
[11] = Table 3, read-out: Average IC50 CDK2 cyclin A2
[12] = Table 4, read-out: Kinase Inhibition IC50 CDK2-cyclin A
[13] = Table 4, read-out: Kinase Inhibition IC50 CDK7-cyclin H
[14] = Table 4, read-out: Kinase Inhibition IC50 CDK2-cyclin E
[15] = Table 4, read-out: Kinase Inhibition IC50 CDK4-cyclin D1
[16] = Table 4, read-out: Kinase Inhibition IC50 CDK9-cyclin T1

Compound | IC50 [1, 7] | IC50 [2, 8] | IC50 [3] | IC50 [4, 9] | IC50 [5, 10] | IC50 [6, 11] | IC50 [6, 12] | IC50 [4, 13] | IC50 [1, 14] | IC50 [2, 15] | IC50 [5, 16]
Cc1nc(C)c(-c2ccnc(Nc3cccc(Cl)c3)n2)s1 [Compound 3, (3-Chloro-phenyl)-[4-(2,4-dimethyl-thiazol-5-yl)-pyrimidin-2-yl]-amine] | 5600 nM | > 50000 nM | 32000 nM | > 100000 nM |  |  |  |  |  |  | 
Cc1nc(C)c(-c2ccnc(Nc3ccc(F)cc3)n2)s1 [Compound 8, [4-(2,4-Dimethyl-thiazol-5-yl)-pyrimidin-2-yl]-(4-fluoro-phenyl)-amine] |  |  | 17000 nM | 16000 nM | 310 nM |  |  |  |  |  | 
Cc1nc(C)c(-c2ccnc(Nc3cccc(C(F)(F)F)c3)n2)s1 [Compound 13, [4-(2,4-Dimethyl-thiazol-5-yl)-pyrimidin-2-yl]-(3-trifluoromethyl-phenyl)-amine] | 22000 nM | > 100000 nM | > 100000 nM | > 100000 nM | 85000 nM | > 100000 nM |  |  |  |  | 
Cc1nc(N)sc1-c1ccnc(Nc2ccc(O)cc2)n1 [Compound 98, 4-[4-(2-Amino-4-methyl-thiazol-5-yl)-pyrimidin-2-ylamino]-phenol] |  |  |  | 1000 nM | 45 nM |  |  |  |  |  | 
Cc1nc(C)c(-c2ccnc(Nc3cccc(NC(=N)N)c3)n2)s1 [Compound 99, N-{3-[4-(2,4-Dimethyl-thiazol-5-yl)-pyrimidin-2-ylamino]-phenyl}-guanidine] |  |  |  | 310 nM | 260 nM |  |  |  |  |  | 
Cc1nc(C)c(-c2ccnc(Nc3ccc([N+](C)(C)C)cc3)n2)s1 [Compound 104, {4-[4-(2,4-Dimethyl-thiazol-5-yl)-pyrimidin-2-ylamino]-phenyl}-trimethyl-ammonium] |  |  |  | 390 nM | 140 nM |  |  |  |  |  | 
COc1cccc(Nc2nccc(-c3sc(N)nc3C)n2)c1 [Compound 108, [4-(2-Amino-4-methyl-thiazol-5-yl)-pyrimidin-2-yl]-(3-methoxy-phenyl)-amine] | 390 nM | 1500 nM | 2800 nM |  |  | 910 nM |  |  |  |  | 
Cc1nc(N)sc1-c1ccnc(Nc2cccc(F)c2)n1 [Compound 109, [4-(2-Amino-4-methyl-thiazol-5-yl)-pyrimidin-2-yl]-(3-fluoro-phenyl)-amine] | 380 nM | 1200 nM | 2900 nM |  |  | 1400 nM |  |  |  |  | 
Cc1nc(C)c(-c2ccnc(Nc3ccc(CCO)cc3)n2)s1 [Compound 123, 2-{4-[4-(2,4-Dimethyl-thiazol-5-yl)-pyrimidin-2-ylamino]-phenyl}-ethanol] | 470 nM | 3300 nM | 1900 nM |  |  | 570 nM |  |  |  |  | 
CCN(CCO)c1ccc(Nc2nccc(-c3sc(C)nc3C)n2)cc1 [Compound 124, 2-({4-[4-(2,4-Dimethyl-thiazol-5-yl)-pyrimidin-2-ylamino]-phenyl}-ethyl-amino)-ethanol] | 3000 nM | 6700 nM | 8600 nM |  |  | 3700 nM |  |  |  |  | 
CCNc1nc(C)c(-c2ccnc(Nc3cccc(OC)c3)n2)s1 [Compound 136, [4-(2-Ethylamino-4-methyl-thiazol-5-yl)-pyrimidin-2-yl]-(3-methoxy-phenyl)-amine] | 6800 nM |  | > 100000 nM |  |  | 39000 nM |  |  |  |  | 
CCNc1nc(C)c(-c2ccnc(Nc3ccc(C)c([N+](=O)[O-])c3)n2)s1 [Compound 138, [4-(2-Ethylamino-4-methyl-thiazol-5-yl)-pyrimidin-2-yl]-(4-methyl-3-nitro-phenyl)-amine] | 2700 nM |  | 41000 nM |  |  | 9500 nM |  |  |  |  | 
CCCCNc1nc(C)c(-c2ccnc(Nc3ccc(F)cc3)n2)s1 [Compound 139, [4-(2-Butylamino-4-methyl-thiazol-5-yl)-pyrimidin-2-yl]-(4-fluoro-phenyl)-amine] | 1700 nM | 30000 nM | 47000 nM |  | 23000 nM | 25000 nM |  |  |  |  | 
Cc1cc(Nc2nccc(-c3sc(=O)n(C)c3C)n2)ccc1Cl [Compound 160, 5-[2-(4-Chloro-3-methyl-phenylamino)-pyrimidin-4-yl]-3,4-dimethyl-3H-thiazol-2-one] |  |  | 1800 nM |  |  |  | 1200 nM |  | 1700 nM | 18000 nM | 150 nM
Cc1ccc(Nc2nccc(-c3sc(=O)n(C)c3C)n2)cc1I [Compound 161, 5-[2-(3-Iodo-4-methyl-phenylamino)-pyrimidin-4-yl]-3,4-dimethyl-3H-thiazol-2-one] |  |  | 2100 nM |  |  |  | 710 nM |  | 3200 nM | 4000 nM | 110 nM
Cc1c(-c2ccnc(Nc3ccc(N(C)C)cc3)n2)sc(=O)n1C [Compound 164, 5-[2-(4-Dimethylamino-phenylamino)-pyrimidin-4-yl]-3,4-dimethyl-3H-thiazol-2-one] |  |  | 2200 nM |  |  |  |  | 1800 nM |  | 1000 nM | 130 nM

Other lines, results leading:

IC50 [1, 7] | IC50 [2, 8] | IC50 [3] | IC50 [4, 9] | IC50 [5, 10] | IC50 [6, 11] | IC50 [6, 12] | IC50 [4, 13] | IC50 [1, 14] | IC50 [2, 15] | IC50 [5, 16] | Compound
 |  | 1200 nM | 3200 nM | 240 nM |  |  |  |  |  |  | Cc1nc(C)c(-c2ccnc(Nc3cccc(O)c3)n2)s1 [Compound 27, 3-[4-(2,4-Dimethyl-thiazol-5-yl)-pyrimidin-2-ylamino]-phenol]
140 nM | 1700 nM | 1600 nM |  | 1300 nM | 310 nM |  |  |  |  |  | COc1ccc(Nc2nccc(-c3sc(C)nc3C)n2)cc1O [Compound 126, 5-[4-(2,4-Dimethyl-thiazol-5-yl)-pyrimidin-2-ylamino]-2-methoxy-phenol]
1100 nM | 4100 nM | 470 nM | 4900 nM |  | 670 nM |  |  |  |  |  | COc1ccc(Nc2nccc(-c3sc(C)nc3C)n2)cc1N(C)C [Compound 130, N^1-[4-(2,4-Dimethyl-thiazol-5-yl)-pyrimidin-2-yl]-4-methoxy-N^3,N^3-dimethyl-benzene-1,3-diamine]
28 nM | 3800 nM | 48 nM | 11000 nM |  | 1 nM |  |  |  |  |  | Cc1nc(C)c(-c2ccnc(Nc3ccc(S(=O)(=O)O)cc3)n2)s1 [Compound 148, 4-[4-(2,4-Dimethyl-thiazol-5-yl)-pyrimidin-2-ylamino]-benzenesulfonic acid]
160 nM | 4900 nM | 1500 nM | 11000 nM |  | 410 nM |  |  |  |  |  | Cc1nc(C)c(-c2ccnc(Nc3ccccc3)n2)s1 [Compound 150, [4-(2,4-Dimethyl-thiazol-5-yl)-pyrimidin-2-yl]-phenyl-amine]
 |  | 1400 nM |  |  |  | 270 nM | 8700 nM |  |  |  | Cc1c(-c2ccnc(Nc3ccc(Cl)cc3)n2)sc(=O)n1C [Compound 156, 5-[2-(4-Chloro-phenylamino)-pyrimidin-4-yl]-3,4-dimethyl-3H-thiazol-2-one]
 |  | 370 nM |  |  |  | 86 nM | 1300 nM | 93 nM | 1000 nM |  | Cc1c(-c2ccnc(Nc3cccc(O)c3)n2)sc(=O)n1C [Compound 158, 5-[2-(3-Hydroxy-phenylamino)-pyrimidin-4-yl]-3,4-dimethyl-3H-thiazol-2-one]
 |  | 820 nM |  |  |  | 260 nM | 1100 nM | 78 nM |  |  | Cc1c(-c2ccnc(Nc3ccc(F)c([N+](=O)[O-])c3)n2)sc(=O)n1C [Compound 159, 5-[2-(4-Fluoro-3-nitro-phenylamino)-pyrimidin-4-yl]-3,4-dimethyl-3H-thiazol-2-one]
